From patent US20100069319A1, “Mercaptopurine derivatives and uses thereof” (priority 2007, published 2010)
Read-outs that look alike come from different tables or passages of the source. Values belong to the molecule of their own block, whether it stands above or below them.

Assays:
Daudi cells = assay: XTT cell proliferation assay; format: cell-based; conditions: 16 h
Protocol: (§1) Cell proliferation was determined by the XTT viability assay in 96-well plates, based on the reduction of tetrazolium salt to soluble formazan compounds by living cells. Cells (10,000-15,000 cells/well) were seeded in a 96-well plate. After 16 h incubation with various concentrations of 6-MP, 6-MPR and their S-allylthio-derivatives, 50 μl of XTT/PMS mixture (50 μM PMS, 0.1% XTT in medium) was added onto the cells. After an incubation period of 3-4 h at 37° C. the absorbance of the samples was measured in an ELISA Reader at 450 nm. SDS (1%, 10 μl/well) was added to reference wells before adding the XTT/PMS solution.
(§2) The inhibitory effects of the various prodrugs on Daudi leukemia cell and on monolayer N87 cells were compared. […] XTT was added to the wells for 3 h at 37° C. Cell viability was monitored using an ELISA reader at 450 nm, as described in Materials and Methods.

N87 cells = assay: XTT cell proliferation assay; format: cell-based, human; conditions: 16 h
Protocol: as §1, §2

Jurkat = assay: Anti-proliferative concentration IC50 (Table 2); format: cell-based, human; conditions: 16 h, tested at 0-100 μM, read-out: Anti-proferative concentration - IC50 (mean ± SE)
Protocol: as §1
(§3) The results of viability and proliferation were expressed as mean values±SD (n=3-6). For each cell line, the results were analyzed using two-way analysis of variance (ANOVA) followed by Bonferroni's posttest for the factors of the drugs used and their various concentrations, considering p<0.05 as significant. IC50 values (mean±SEM) were obtained from the linear range of the viability curve versus drug concentration (XTT assay).
(§4) In particular, cell in suspension, namely, Daudi, HL-60, U937, Molt-4, Jurkat and B-CLL, were tested at prodrug concentration of 0-100 μM, and monolayer cells, namely, Hela HtTA-1, MDR HT-29 and N87, were tested at prodrug concentration of 0-200 μM. in both cases, cell viability was determined by trypan blue dye exclusion assay. Data are presented in Table 2 hereinbelow for 6MP derivatives-treated for 16 h.

U937 = assay: Anti-proliferative concentration IC50 (Table 2); format: cell-based, human; conditions: U937, 16 h, tested at 0-100 μM, read-out: Anti-proferative concentration - IC50 (mean ± SE)
Protocol: as §1, §3, §4

Molt-4 = assay: Anti-proliferative concentration IC50 (Table 2); format: cell-based; conditions: Molt-4, 16 h, tested at 0-100 μM, read-out: Anti-proferative concentration - IC50 (mean ± SE)
Protocol: as §1, §3, §4

[1] = test system: human peripheral blood mononuclear cells (PBMCs); conditions: after 4 days of treatment, read-out: IC50, T-cell mitogen-induced blastogenesis; cited from earlier work
HL-60 = assay: Anti-proliferative concentration IC50 (Table 2); format: cell-based, human; conditions: HL-60, 16 h, tested at 0-100 μM, read-out: Anti-proferative concentration - IC50 (mean ± SE)
Protocol: as §1, §3, §4

Hela = assay: Anti-proliferative concentration IC50 (Table 2); format: cell-based, human; conditions: 16 h, tested at 0-200 μM, read-out: Anti-proferative concentration - IC50 (mean ± SE)
Protocol: as §1, §3, §4

MDR HT-29 = assay: Anti-proliferative concentration IC50 (Table 2); format: cell-based, human; conditions: MDR HT-29, 16 h, tested at 0-200 μM, read-out: Anti-proferative concentration - IC50 (mean ± SE)
Protocol: as §1, §3, §4

N87 = assay: Anti-proliferative concentration IC50 (Table 2); format: cell-based, human; conditions: N87, 16 h, tested at 0-200 μM, read-out: Anti-proferative concentration - IC50 (mean ± SE)
Protocol: as §1, §3, §4

Daudi = assay: Anti-proliferative concentration IC50 (Table 2); format: cell-based; conditions: 16 h, tested at 0-100 μM, read-out: Anti-proferative concentration - IC50 (mean ± SE)
Protocol: as §1, §3, §4

B-CLL cells = conditions: 48 h, read-out: calculated IC50 for allicin induced-apoptosis; cited from earlier work

IC50 (Jurkat; Homo sapiens): 99 ± 11.9 µM
IC50 (U937; Homo sapiens, U-937): > 200 µM
IC50 (Molt-4; Homo sapiens): 24.8 ± 2.5 µM
Compound: OC[C@H]1O[C@@H](n2cnc3c(S)ncnc32)[C@H](O)[C@@H]1O [6-MPR, 6-mercaptopurine riboside, reference compound]
cell proliferation (Daudi cells; 0-100 μM): no significant loss of cell proliferation
cell proliferation (N87 cells; N87, 0-100 μM): no significant loss of cell proliferation
proliferation (residual) (N87 cells; N87, 150 μM): ~75%

Compound: Cn1cnc([N+](=O)[O-])c1Sc1ncnc2nc[nH]c12 [AZ, azathioprine]
IC50 [1]: 0.23 ± 0.231 µM

IC50 (HL-60; Homo sapiens): 5.5 ± 0.6 µM
IC50 (Hela; Homo sapiens): 104 ± 10.2 µM
IC50 (MDR HT-29; Homo sapiens): 83.8 ± 7.8 µM
IC50 (U937; Homo sapiens, U-937): 19.7 ± 2.1 µM
IC50 (Daudi; Homo sapiens): 35.3 ± 4.2 µM
Compound: C=CCS[S+]([O-])CC=C (stereo not drawn) [Allicin, reference compound]
IC50 (N87; Homo sapiens): 16.8 ± 3.3 µM
IC50 (B-CLL cells): 0.02 µM

IC50 (HL-60): 86.1 ± 9.5 µM
IC50 (Hela): > 200 µM
IC50 (Jurkat): 69.1 ± 7.5 µM
IC50 (MDR HT-29): > 200 µM
IC50 (U937): 113 ± 10.9 µM
IC50 (Daudi): 70.8 ± 7.8 µM
IC50 (Molt-4): 16.9 ± 2.3 µM
Compound: C=CCSSc1ncnc2c1ncn2[C@@H]1O[C@H](CO)[C@@H](O)[C@H]1O [SA-6MPR, S-allylthio-6-mercaptopurine 9-riboside]
residual proliferation (Daudi cells; 50 μM): 60%
residual proliferation (Daudi cells; 100 μM): 25%
residual proliferation / viability (N87 cells; N87, 50 μM): about 70%
residual viability (N87 cells; N87, 100 μM): ~55%
proliferation (N87 cells; N87, 150 μM): complete loss of proliferation
IC50 (N87): 120 ± 15.6 µM
